The source of these data is US20230107274A1, “AN ORAL PHARMACEUTICAL COMPOSITION COMPRISING AN EXTRACT OF COMBINED HERBS COMPRISING LONGANAE ARILLUS FOR THE TREATMENT OR ALLEVIATION OF INFLAMMATORY DISEASE AND THE USE THEREOF” (MEDIHELPLINE CO., LTD, priority 2020, published 2023).

The subject of test [1] is IL-1β. Briefly: Inhibition of cytokine expression in TNF alpha-induced HaCaT cell (Real-time PCR): IL-1β. In kind it is cell-based, human. The conditions noted are these: TNFα 50 ng/ml, Dexamethasone 200 nM, TNFα+DIW control 4.152715. How it is done: (§1) In order to determine the anti-inflammatory activity of inventive extract, following inhibition test of cytokine expression using HaCaT cell was performed according to the procedure disclosed in the literature (Jeong et al., 2019, J. Invest. Dermatol., May; 139 (5): pp 1098-1109).
(§2) HaCaT cell (human epithelial keratinocyte cell, 300493, CLS) was inoculated into DMEM medium containing 10% Fetal bovine serum, 100 units/ml of penicillin, 100 μg/ml of streptomycin (D6429, Sigma-Aldrich Co. Ltd) and was incubated in the incubator (HERA cell 150i, Thermo Fisher Scientific Co. Ltd.) maintaining optimum humidity (85-95%) and 5% CO2 atmosphere.
(§3) For performing gene expression test, the incubated cells were transferred to 12 wells and 50 ng/ml of TNF alpha (RC214-12, Biobasic Co. Ltd) was treated therewith for 1 hour to induce inflammatory response.
(§4) 1 hour after inducing the inflammation, 1 μg/ml of inventive extract prepared in Examples was treated with identical medium and subjected to incubation for 1 hour. After the incubation, RNA (FATRR-001, Favorgen) was extracted from the cell and cDNA was synthesized from the RNA using by cDNA synthesis kit (RRO36A, TAKARA). […]
For orientation: In qPCR the cycle at which signal appears reflects the starting amount.

The subject of test [2] is TSLP. Briefly: Inhibition of cytokine expression in TNF alpha-induced HaCaT cell (Real-time PCR): TSLP. Conditions: TNFα 50 ng/ml, Dexamethasone 200 nM, TNFα+DIW control 132.4692. In kind it is cell-based, human. How it is done:
as §1, §2, §3, §4

The test system of test [3] is MIA(Monosodium iodoacetate)-induced osteoarthritis rat model. Briefly: Weight bearing in MIA-induced osteoarthritis rat model. It is filed as in vivo. How it is done: (§5) In order to evaluate the efficacy of test sample on MIA(Monosodium iodoacetate)-induced osteoarthritis rat model, following test was performed at “Joint and Immune disease T2B center(chief MD. PARK, Sung-whan) located in “The Catholic University of Korea, Seoul ST. Mary's Hospital, Seoul).
(§6) (1) Test animals: Rats (Male Wista rats, Central Lab. Animal, Seoul, Korea, 7 to 8 weeks aged, 200 to 250 g) were bred in the well-controlled breeding room in polysulfone cage (2-3 […] per cage) maintaining the temperature of 21±2° C. and relative humidity of 50±20% with the light cycle of day/dark (08:00˜20:00) at the interval of 12 hours and acclimated to the surround environment
(§7) Test method: 3 mg/kg of Monosodium iodoacetate (MIA, 12512, Sigma, Poole, UK) was dissolved in the injection saline to re reach to 60 mg/ml concentration on the day of the experiment (day 0). After dividing each groups, the experimental animals were placed in the anesthesia chamber and anesthetized with diethyl ether. 50 μL of MIA (3 mg/body) was injected into the right knee joint through the infrapatellar ligament using a 1cc syringe (26.5 gauge) in order to inducing osteoarthritis
(§8) (4) Treatment route: oral administration 3 days after inducing osteoarthritis (once a day)
(§9) After inducing osteoarthritis with MIA, test sample treatment groups (G2, G3) were prepared by homogenizing the test samples with vehicle (saline) according to the prescribed dose and orally administrating 1 mL of test sample once a day.
In order to measure the change in weight (or weight distribution) between normal hind legs (left) and arthritis-induced hind legs (right), the load of both hind feet was determined using testing apparatus (Model 600, IITC, USA) according to the method described in the literature (Kwon J Y et al., Sci Rep. 2018 Sep. 14; 8(1):13832).
The test animal shall be correctly located in the holder and fixed so that both feet can be stepped symmetrically, since the load can be varied depending on the position of the animal's foot. The particular person performs the fixation to reduce the possible error to the maximum extent.
When each animal was correctly located in the holder, the machine was operated and the weight bearing of each group was measured twice for 5 seconds per measurement.
The mean value for each test result was digitized into the weight bearing(g) of each foot.
After obtaining a baseline value before MIA treatment (Day 0), the weight bearing in the normal control group (G1), test sample groups (G2, G3) and positive control group (G4), was determined at a certain time twice a week, 3 days before the treatment of test sample (day 3).
The test results of the weight load measurement were transformed into each weight bearing ratio according to below Math 1.
Weight ratio (%)={weight of right hind limb/(weight of right hind limb+weight of left hind limb)}×100 [Math.1]

For test [4] the test system is unchanged. Briefly: Bone injury by micro-CT in MIA-induced osteoarthritis rat model. The conditions noted are these: 30 mg/kg oral once a day; vehicle 45.7. It is filed as in vivo. How it is done: as §5, §6
Test method: 3 mg/kg of Monosodium iodoacetate (MIA, 12512, Sigma, Poole, UK) was dissolved in the injection saline to re reach to 60 mg/ml concentration on the day of the experiment (day 0). […]
The degree of bone injury around femur area of the knee joint in each group consisting of 3 rats, was determined using X-ray source (70 kV, 142 uA, AI 0.5 mm filter, rotation step 0.6°) and animal scanner (SKYSCAN1272 ex-vivo micro-CT, Bruker micro CT, Belgium) to perform micro-CT photography at 15 μm of Pixel resolution including section formation (NRecon), section rotation (Data Viewer), data Analysis (CTAN), Volume rendering generation (CTVox), and surface rendering (CTAN+CTVol).

Test [5] has the same test system. Briefly: Pain threshold (dynamic plantar aesthesiometer) in MIA-induced osteoarthritis rat model. It is filed as in vivo. How it is done: as §5, §6, §7, §8, §9
The positive control group (G4) was homogenized to the vehicle according to the prescribed dose and orally administered once a day.
24 rats were divided into 4 groups per 6 rats, and the test samples and positive control substance were orally administered at a specified time.
The pain threshold (nociceptive latency, threshold) was determined by using dynamic plantar aesthesiometer (Ugo Basile, 37400, Comerio, Italy), a device that gradually increases the force on the feet of Male Wistarats over a certain period of time, according to a […] evaluation method to measure pain thresholds ((Kwon J Y et al., Sci Rep. 2018 Sep. 14; 8(1):13832)
Prior to measurement, the animal was placed in an acrylic box with a wire mesh bench and acclimated for five minutes.
The pain threshold was determined by measuring the weight showing paw withdrawal behavior which animal withdraws its feet by applying a slow force of 0 to 50 g over 10 seconds using metal filaments in the center of each animal's right hind foot.
To avoid tissue damage, the cut-off threshold was set to 50 g, and the measurement time was set to the day before the inducing day of osteoarthritis by the treatment of MIA to calculate base line value in the normal control group (G1), test sample groups (G2, G3) and positive control group (G4) and the same value was obtained in the base line (day 3).
The same value was measured before the treatment of test samples (day 3) and the value was measured once a week at a certain time by administering the test samples in the […] of rats.
The test result of pain threshold was calculated according to (a) paw withdrawal latencies (sec) and (b) paw withdrawal threshold (g).

Test [6] shares this test system. The experiment in a line: Bone injury by histopathological analysis (Safranin O; Total Mankin score, OARSI score) in MIA-induced osteoarthritis rat model. Conditions: 30 mg/kg oral once a day. It is filed as in vivo. How it is done:
as §5, §6
Test method: 3 mg/kg of Monosodium iodoacetate (MIA, 12512, Sigma, Poole, UK) was dissolved in the injection saline to re reach to 60 mg/ml concentration on the day of the experiment (day 0). After dividing each groups, the experimental animals were placed in the anesthesia chamber and anesthetized with diethyl ether. […]
The histopathological analysis was performed by photographing the femur area of knee joint (×200 fold). The test result was calculated and evaluated according to the known methods including Total Mankin score (Bulstra S K et al., 1989, Clin Orthop Relat Res: 294-302.) and OARSI score (Pritzker K. P. H. et al., 2006, Osteoarthritis Cartilage 14:13-29).

Molecules are shown by their SMILES.

Turning to `C[C@@H]1C[C@H]2[C@@H]3CCC4=CC(=O)C=C[C@]4(C)[C@@]3(F)[C@@H](O)C[C@]2(C)[C@@]1(O)C(=O)CO` [Dex, Dexamethasone], the “IL-1β expression (RT-PCR, relative to untreated = 1)” value in test [1] was 1.081. Further, the “TSLP expression (RT-PCR, relative to untreated = 1)” value in test [2] is on record as 52.49.
Turning to `Cc1ccc(-c2cc(C(F)(F)F)nn2-c2ccc(S(N)(=O)=O)cc2)cc1` [Celecoxib], the “weight bearing, weight ratio of right hind limb” value in test [3] (30 mg/kg oral once a day, 6 days after MIA inducement, vehicle 35.5) was 38.5 ± 1.8%; in test [3] (30 mg/kg oral once a day, 11 days after MIA inducement, vehicle 33.8), 40.0 ± 3.2%; in test [3] (30 mg/kg oral once a day, 13 days after MIA inducement, vehicle 32.3), 44.5 ± 0.7%; in test [3] (30 mg/kg oral once a day, 17 days after MIA inducement, vehicle 32.2) it was 43.9 ± 1.3%; in test [3] (30 mg/kg oral once a day, 21 days after MIA inducement, vehicle 31.6), 39.7 ± 3.7%; in test [3] (30 mg/kg oral once a day, 25 days after MIA inducement, vehicle 33.3) it was 41.7 ± 1.9%. Besides, the “weight bearing, weight ratio of right hind limb” value in test [3] (30 mg/kg oral once a day, Before MIA inducement (baseline), vehicle 50.6) is 49.3 ± 0.9%; in test [3] (30 mg/kg oral, 3 days after MIA inducement (before first dose), vehicle 36.9) it was 34.7 ± 4.0%. In test [4], the “Bone surface (Micro-CT, femur area of knee joint)” value turned out to be 57.5 ± 0.5%. Further, the paw withdrawal latencies in test [5] (30 mg/kg oral once a day, 6 days after MIA treatment, vehicle 8.6) came to 9.9 ± 2.2 s; in test [5] (30 mg/kg oral once a day, 11 days after MIA treatment, vehicle 9.1) it was 10.2 ± 0.9 s; in test [5] (30 mg/kg oral once a day, 13 days after MIA treatment, vehicle 9.0), 10.4 ± 0.9 s; in test [5] (30 mg/kg oral once a day, 17 days after MIA treatment, vehicle 9.5), 10.9 ± 1.8 s; in test [5] (30 mg/kg oral once a day, 21 days after MIA treatment, vehicle 9.0), 11.9 ± 1.5 s; in test [5] (30 mg/kg oral once a day, 25 days after MIA treatment, vehicle 9.0) it was 11.6 ± 1.0 s. In addition, the paw withdrawal latencies in test [5] (30 mg/kg oral once a day, Before MIA treatment (baseline), vehicle 16.8) worked out at 16.0 ± 1.5 s; in test [5] (30 mg/kg oral, 3 days after MIA treatment (before first dose), vehicle 9.4) it was 9.2 ± 2.1 s. Besides, the paw withdrawal threshold came to 19.9 ± 4.3 g in test [5] (30 mg/kg oral once a day, 6 days after MIA treatment, vehicle 17.4); 20.7 ± 1.7 g in test [5] (30 mg/kg oral once a day, 11 days after MIA treatment, vehicle 18.5); 21.0 ± 1.6 g in test [5] (30 mg/kg oral once a day, 13 days after MIA treatment, vehicle 18.3); 22.0 ± 3.4 g in test [5] (30 mg/kg oral once a day, 17 days after MIA treatment, vehicle 19.2); 24.0 ± 2.9 g in test [5] (30 mg/kg oral once a day, 21 days after MIA treatment, vehicle 18.3); 23.4 ± 1.9 g in test [5] (30 mg/kg oral once a day, 25 days after MIA treatment, vehicle 18.2). The paw withdrawal threshold in test [5] (30 mg/kg oral once a day, Before MIA treatment (baseline), vehicle 33.6) is 33.8 ± 2.9 g; in test [5] (30 mg/kg oral, 3 days after MIA treatment (before first dose), vehicle 19.0) it was 18.6 ± 4.1 g. For the same compound, in test [6] (vehicle 4), the OARSI score was 2.4 ± 0.4. In test [6] (vehicle 7.5), the “Total Mankin score” value was found to be 4 ± 0.6.
